In patent US3995059A, “Pharmaceutical compositions containing fatty acid amide derivatives” (Sumitomo Chemical Company, Limited, priority 1966, dated 1976):

Legend:
liver cholesterol = test: Liver cholesterol (deposition of cholesterol and fat in the liver) of mice fed a cholesterol-rich diet (Table 1); type: in vivo; conditions: for Liver cholesterol: 0.2% in diet, oral, 8 to 12 days
[1] = test system: total cholesterol value in the blood serum; test: Total cholesterol in blood serum of mice fed a diet enriched with cholesterol and bile acids (Table 1); type: in vivo; conditions: 0.2% in diet, 8 to 12 days; for Serum cholesterol: oral
Procedure: The effectiveness of the compounds was tested by using mice fed on a specific diet which was enriched with cholesterol and bile acids. […] The amide compound as well was mixed with the specific diet in an amount of 0.2%, and continuously administered orally for 8 to 12 days. Then the total cholesterol value in the blood serum of the animals was evaluated.

[2] = experiment [III], control not given

CCCCC/C=C\C/C=C\CCCCCCCC(=O)NC(C)c1ccccc1 (single isomer, unassigned; (-)) [(-) (α-Methylbenzyl)-linoleamide]
Liver cholesterol (liver cholesterol; experiment [II], control 3308): 908 mg/100 g.
Serum cholesterol ([1]; experiment [II], control 521): 286 mg %

CC/C=C\C/C=C\C/C=C\CCCCCCCC(=O)NC(C)c1ccccc1 (single isomer, unassigned; (-)) [(-) (α-Methylbenzyl)-linolenamide]
Liver cholesterol (liver cholesterol; experiment [II], control 3308): 767 mg/100 g.
Serum cholesterol ([1]; experiment [II], control 521): 253 mg %

CCCCCCCC/C=C\CCCCCCCC(=O)NC(C)c1ccccc1 (single isomer, unassigned; (-)) [(-) (α-Methylbenzyl)-oleamide]
Liver cholesterol (liver cholesterol; experiment [II], control 3308): 808 mg/100 g.
Serum cholesterol ([1]; experiment [II], control 521): 283 mg %

CCCCCC=CCC=CCCCCCCCC(=O)NC(Cc1ccccc1)c1ccccc1 (centres unmarked) [C17 H31 CO]
Liver cholesterol (liver cholesterol; experiment [V], control 2640): 544 mg/100 g.
Serum cholesterol ([1]; experiment [V], control 372): 214 mg %

CCCCC/C=C\C/C=C\CCCCCCCC(=O)O [Linoleic acid, reference compound]
prevention of deposition of cholesterol and fat in the liver (liver cholesterol; animals fed on a diet rich in cholesterol): such effectiveness is never observed
Liver cholesterol (liver cholesterol; experiment [II], control 3308): 4491 mg/100 g.
Liver cholesterol (liver cholesterol; experiment [I], control 3585): 4585 mg/100 g.
Liver cholesterol (liver cholesterol; experiment [VII], control 3535): 4550 mg/100 g.
Liver cholesterol (liver cholesterol; experiment [V], control 2640): 3124 mg/100 g.
Serum cholesterol ([1]; experiment [II], control 521): 329 mg %
Serum cholesterol ([1]; experiment [I], control 546): 324 mg %
Serum cholesterol ([1]; experiment [VII], control 508): 341 mg %
Serum cholesterol ([1]; experiment [V], control 372): 351 mg %
ineffective cases and variation of effectiveness ([1]; mice): ineffective cases were sometimes observed due to the individual difference of the animals, and the effectiveness varied considerably even in the same individual animal

CCCCCC=CCC=CCCCCCCCC(=O)NC(Cc1ccccc1)c1ccccc1 (stereo not drawn) [d- C17 H31 CO]
Liver cholesterol (liver cholesterol; experiment [V], control 2640): 500 mg/100 g.
Serum cholesterol ([1]; experiment [V], control 372): 200 mg %

CCCCCCCC/C=C\CCCCCCCC(=O)NC(Cc1ccccc1)c1ccccc1 (stereo not drawn) [d- drawing 33]
Liver cholesterol (liver cholesterol; experiment [V], control 2640): 729 mg/100 g.
Serum cholesterol ([1]; experiment [V], control 372): 222 mg %

CC(C)CCCCCCCCCCCCCCC(=O)NC(Cc1ccccc1)c1ccccc1 (stereo not drawn) [d- iso-C17 H35 CO]
Liver cholesterol (liver cholesterol; experiment [V], control 2640): 561 mg/100 g.
Serum cholesterol ([1]; experiment [V], control 372): 209 mg %

CCCCCCCC/C=C\CCCCCCCC(=O)NC(C)c1ccccc1 (centres unmarked) [drawing 7]
Liver cholesterol (liver cholesterol; experiment [II], control 3308): 815 mg/100 g.
Serum cholesterol ([1]; experiment [II], control 521): 290 mg %

CCCCCCCC/C=C\CCCCCCCC(=O)NC(C)c1ccccc1 (centres unmarked) [drawing 8]
Liver cholesterol (liver cholesterol; experiment [II], control 3308): 1330 mg/100 g.
Serum cholesterol ([1]; experiment [II], control 521): 295 mg %

CCCCCCCCCCCCCC(=O)NC(C)c1ccccc1 (centres unmarked) [drawing 9]
Liver cholesterol (liver cholesterol; experiment [II], control 3308): 1620 mg/100 g.
Serum cholesterol ([1]; experiment [II], control 521): 302 mg %

CCCCCCCCCCCCCC(=O)NC(C)c1ccccc1 (centres unmarked) [drawing 10]
Liver cholesterol (liver cholesterol; experiment [II], control 3308): 1820 mg/100 g.
Serum cholesterol ([1]; experiment [II], control 521): 252 mg %

CCCCCCCCCCCCCCCC(=O)NC(C)c1ccccc1 (centres unmarked) [drawing 11]
Liver cholesterol (liver cholesterol; experiment [II], control 3308): 906 mg/100 g.
Serum cholesterol ([1]; experiment [II], control 521): 300 mg %

CCCCCCCCCCCCCCCC(=O)NC(C)c1ccccc1 (centres unmarked) [drawing 12]
Liver cholesterol (liver cholesterol; experiment [II], control 3308): 1160 mg/100 g.
Serum cholesterol ([1]; experiment [II], control 521): 314 mg %

CCCCC/C=C\C/C=C\CCCCCCCC(=O)NC(CC)c1ccccc1 (centres unmarked) [drawing 13]
Liver cholesterol (liver cholesterol; experiment [II], control 3308): 992 mg/100 g.
Serum cholesterol ([1]; experiment [II], control 521): 274 mg %

CCCCC/C=C\C/C=C\CCCCCCCC(=O)NC(CC)c1ccccc1 (centres unmarked) [drawing 14]
Liver cholesterol (liver cholesterol; experiment [II], control 3308): 1042 mg/100 g.
Serum cholesterol ([1]; experiment [II], control 521): 302 mg %

CCCCC/C=C\C/C=C\CCCCCCCC(=O)NC(C)c1ccc(Cl)cc1 (centres unmarked) [drawing 17]
Liver cholesterol (liver cholesterol; [2]): 946 mg/100 g.
Serum cholesterol ([1]; experiment [III], control 471): 225 mg %

CCCCC/C=C\C/C=C\CCCCCCCC(=O)NC(C)c1ccc(Cl)c(Cl)c1 (centres unmarked) [drawing 18]
Liver cholesterol (liver cholesterol; [2]): 856 mg/100 g.
Serum cholesterol ([1]; experiment [III], control 471): 315 mg %

CCCCC/C=C\C/C=C\CCCCCCCC(=O)NC(CC)c1ccc(C)cc1 (centres unmarked) [drawing 21]
Liver cholesterol (liver cholesterol; [2]): 1065 mg/100 g.
Serum cholesterol ([1]; experiment [III], control 471): 242 mg %

CCCCC/C=C\C/C=C\CCCCCCCC(=O)NC(C)c1ccc(C)cc1 (centres unmarked) [drawing 22]
Liver cholesterol (liver cholesterol; [2]): 1047 mg/100 g.
Serum cholesterol ([1]; experiment [III], control 471): 237 mg %

CCCCC/C=C\C/C=C\CCCCCCCC(=O)NC(C)c1ccc(C)cc1 (centres unmarked) [drawing 23]
Liver cholesterol (liver cholesterol; experiment [IV], control 3145): 828 mg/100 g.
Serum cholesterol ([1]; experiment [IV], control 595): 240 mg %

CCCCC/C=C\C/C=C\CCCCCCCC(=O)NC(CC)c1ccc(C)cc1 (centres unmarked) [drawing 24]
Liver cholesterol (liver cholesterol; experiment [IV], control 3145): 908 mg/100 g.
Serum cholesterol ([1]; experiment [IV], control 595): 321 mg %

CCCCC/C=C\C/C=C\CCCCCCCC(=O)NC(C)c1ccc(Cl)cc1 (centres unmarked) [drawing 25]
Liver cholesterol (liver cholesterol; experiment [IV], control 3145): 826 mg/100 g.
Serum cholesterol ([1]; experiment [IV], control 595): 217 mg %

CCCCC/C=C\C/C=C\CCCCCCCC(=O)NC(C)c1ccc(Cl)c(Cl)c1 (centres unmarked) [drawing 26]
Liver cholesterol (liver cholesterol; experiment [IV], control 3145): 1000 mg/100 g.
Serum cholesterol ([1]; experiment [IV], control 595): 251 mg %

CC/C=C\C/C=C\C/C=C\CCCCCCCC(=O)NC(C)c1ccccc1C (centres unmarked) [drawing 29]
Liver cholesterol (liver cholesterol; experiment [IV], control 3145): 913 mg/100 g.
Serum cholesterol ([1]; experiment [IV], control 595): 222 mg %

CC/C=C\C/C=C\C/C=C\CCCCCCCC(=O)NC(Cc1ccccc1)c1ccccc1 (centres unmarked) [drawing 32]
Liver cholesterol (liver cholesterol; experiment [V], control 2640): 729 mg/100 g.
Serum cholesterol ([1]; experiment [V], control 372): 238 mg %

CCCCCCCC/C=C\CCCCCCCC(=O)NC(Cc1ccccc1)c1ccccc1 (centres unmarked) [drawing 33]
Liver cholesterol (liver cholesterol; experiment [V], control 2640): 831 mg/100 g.
Serum cholesterol ([1]; experiment [V], control 372): 245 mg %

CCCCC/C=C\C/C=C\CCCCCCCC(=O)NC(C)c1ccc([N+](=O)[O-])cc1 (centres unmarked) [drawing 44]
Liver cholesterol (liver cholesterol; experiment [VIII], control 2652): 1603 mg/100 g.
Serum cholesterol ([1]; experiment [VIII], control 472): 340 mg %

CCCCC/C=C\C/C=C\CCCCCCCC(=O)NC12CC3CC(CC(C3)C1)C2 [drawing 53]
Liver cholesterol (liver cholesterol; experiment [IX], control 2200): 721 mg/100 g.
Serum cholesterol ([1]; experiment [IX], control 336): 288 mg %

CCCCC/C=C\C/C=C\CCCCCCCC(=O)NC(C)c1ccc(C)cc1 (centres unmarked) [drawing 61]
Liver cholesterol (liver cholesterol; experiment [X], control 3293): 820 mg/100 g.
Serum cholesterol ([1]; experiment [X], control 554): 228 mg %

CCCCCCCC/C=C\CCCCCCCC(=O)NC(C)c1ccc(CC)cc1 (centres unmarked) [drawing 63]
Liver cholesterol (liver cholesterol; experiment [X], control 3293): 1210 mg/100 g.
Serum cholesterol ([1]; experiment [X], control 554): 398 mg %

CCCCCCCC/C=C\CCCCCCCC(=O)NC(C)c1ccc(CC)cc1 (centres unmarked) [drawing 64]
Liver cholesterol (liver cholesterol; experiment [X], control 3293): 841 mg/100 g.
Serum cholesterol ([1]; experiment [X], control 554): 254 mg %

CC/C=C\C/C=C\C/C=C\CCCCCCCC(=O)NC(C)c1ccc(C)cc1 (centres unmarked) [drawing 66]
Liver cholesterol (liver cholesterol; experiment [X], control 3293): 1000 mg/100 g.
Serum cholesterol ([1]; experiment [X], control 554): 249 mg %

CC/C=C\C/C=C\C/C=C\CCCCCCCC(=O)NC(C)c1ccc(C)cc1 (centres unmarked) [drawing 67]
Liver cholesterol (liver cholesterol; experiment [X], control 3293): 1015 mg/100 g.
Serum cholesterol ([1]; experiment [X], control 554): 295 mg %

CCCCC/C=C\C/C=C\CCCCCCCC(=O)NC(C)c1ccc(Cl)cc1 (centres unmarked) [drawing 72]
Liver cholesterol (liver cholesterol; experiment [XI], control 3451): 845 mg/100 g.
Serum cholesterol ([1]; experiment [XI], control 595): 230 mg %

CCCCC/C=C\C/C=C\CCCCCCCC(=O)NC(C)c1ccc([N+](=O)[O-])cc1 (centres unmarked) [drawing 73]
Liver cholesterol (liver cholesterol; experiment [XI], control 3451): 1011 mg/100 g.
Serum cholesterol ([1]; experiment [XI], control 595): 275 mg %

CCCCC/C=C\C/C=C\CCCCCCCC(=O)NC(C)c1ccc([N+](=O)[O-])cc1 (centres unmarked) [drawing 74]
Liver cholesterol (liver cholesterol; experiment [XI], control 3451): 1098 mg/100 g.
Serum cholesterol ([1]; experiment [XI], control 595): 315 mg %

CCCCCCCC/C=C\CCCCCCCC(=O)NC(C)c1ccc(Br)cc1 (centres unmarked) [drawing 78]
Liver cholesterol (liver cholesterol; experiment [XI], control 3451): 921 mg/100 g.
Serum cholesterol ([1]; experiment [XI], control 595): 253 mg %

CCCCCCCC/C=C\CCCCCCCC(=O)NC(C)c1ccc(Br)cc1 (centres unmarked) [drawing 79]
Liver cholesterol (liver cholesterol; experiment [XI], control 3451): 1009 mg/100 g.
Serum cholesterol ([1]; experiment [XI], control 595): 277 mg %

CCCCCCCC/C=C\CCCCCCCC(=O)NC(CC)c1cccc([N+](=O)[O-])c1 (centres unmarked) [drawing 81]
Liver cholesterol (liver cholesterol; experiment [XI], control 3451): 906 mg/100 g.
Serum cholesterol ([1]; experiment [XI], control 595): 289 mg %

CCCCCCCC/C=C\CCCCCCCC(=O)NC(CC)c1cccc([N+](=O)[O-])c1 (centres unmarked) [drawing 82]
Liver cholesterol (liver cholesterol; experiment [XI], control 3451): 1125 mg/100 g.
Serum cholesterol ([1]; experiment [XI], control 595): 315 mg %

CCCCCCCC/C=C\CCCCCCCC(=O)NC(C)c1ccc(OC)cc1 (centres unmarked) [drawing 84]
Liver cholesterol (liver cholesterol; experiment [XI], control 3451): 1069 mg/100 g.
Serum cholesterol ([1]; experiment [XI], control 595): 306 mg %

CCCCCCCC/C=C\CCCCCCCC(=O)NC(C)c1ccc(OC)cc1 (centres unmarked) [drawing 85]
Liver cholesterol (liver cholesterol; experiment [XI], control 3451): 1115 mg/100 g.
Serum cholesterol ([1]; experiment [XI], control 595): 318 mg %

CC/C=C\C/C=C\C/C=C\CCCCCCCC(=O)NC(C)c1cccc(Cl)c1 (centres unmarked) [drawing 95]
Liver cholesterol (liver cholesterol; experiment [XI], control 3451): 995 mg/100 g.
Serum cholesterol ([1]; experiment [XI], control 595): 275 mg %

CC/C=C\C/C=C\C/C=C\CCCCCCCC(=O)NC(C)c1cccc(Cl)c1 (centres unmarked) [drawing 96]
Liver cholesterol (liver cholesterol; experiment [XI], control 3451): 1029 mg/100 g.
Serum cholesterol ([1]; experiment [XI], control 595): 300 mg %

CC/C=C\C/C=C\C/C=C\CCCCCCCC(=O)NC(CC)c1ccc([N+](=O)[O-])cc1 (centres unmarked) [drawing 97]
Liver cholesterol (liver cholesterol; experiment [XI], control 3451): 1004 mg/100 g.
Serum cholesterol ([1]; experiment [XI], control 595): 245 mg %

CC/C=C\C/C=C\C/C=C\CCCCCCCC(=O)NC(CC)c1ccc([N+](=O)[O-])cc1 (centres unmarked) [drawing 98]
Liver cholesterol (liver cholesterol; experiment [XI], control 3451): 1325 mg/100 g.
Serum cholesterol ([1]; experiment [XI], control 595): 365 mg %

CC/C=C\C/C=C\C/C=C\CCCCCCCC(=O)NC(Cc1ccccc1)c1ccccc1 (centres unmarked) [drawing 99]
Liver cholesterol (liver cholesterol; experiment [XI], control 3451): 623 mg/100 g.
Serum cholesterol ([1]; experiment [XI], control 595): 240 mg %
